Test results reported in PubChem BioAssay (NCI).
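Five concentrations, 48 hours, 96-well plates. TGI denotes the concentration required for complete inhibition of growth.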

Tests used:
Experiment in all cases: inhibition of tumour cell growth, NCI panel, 48 h
ACHN renal = test system: ACHN renal
CAKI-1 renal = test system: CAKI-1 renal
EKVX NSCLC = test system: EKVX NSCLC
HCT-116 colon = test system: HCT-116 colon
HCT-15 colon = test system: HCT-15 colon
HOP-92 NSCLC = test system: HOP-92 NSCLC
IGROV1 ovarian = test system: IGROV1 ovarian
K-562 leukemia = test system: K-562 leukemia
M14 melanoma = test system: M14 melanoma
MALME-3M melanoma = test system: MALME-3M melanoma
MDA-MB-231 breast = test system: MDA-MB-231 breast
NCI-H226 lung = test system: NCI-H226 lung
NCI-H522 lung = test system: NCI-H522 lung
NCI/ADR-RES ovarian = test system: NCI/ADR-RES ovarian
OVCAR-4 ovarian = test system: OVCAR-4 ovarian
OVCAR-8 ovarian = test system: OVCAR-8 ovarian
SK-MEL-28 melanoma = test system: SK-MEL-28 melanoma
SNB-19 CNS = test system: SNB-19 CNS
MCF7 breast = test system: MCF7 breast
SF-539 CNS = test system: SF-539 CNS

Compound | TGI (ACHN renal) [µM] | TGI (CAKI-1 renal) [µM] | TGI (EKVX NSCLC) [µM] | TGI (HCT-116 colon) [µM] | TGI (HCT-15 colon) [µM] | TGI (HOP-92 NSCLC) [µM] | TGI (IGROV1 ovarian) [µM] | TGI (K-562 leukemia) [µM] | TGI (M14 melanoma) [µM] | TGI (MALME-3M melanoma) [µM] | TGI (MDA-MB-231 breast) [µM] | TGI (NCI-H226 lung) [µM] | TGI (NCI-H522 lung) [µM] | TGI (NCI/ADR-RES ovarian) [µM] | TGI (OVCAR-4 ovarian) [µM] | TGI (OVCAR-8 ovarian) [µM] | TGI (SK-MEL-28 melanoma) [µM] | TGI (SNB-19 CNS) [µM] | TGI (MCF7 breast) [µM] | TGI (SF-539 CNS) [µM]
CN1C(=O)C(C(=O)Nc2ccccn2)C2C[C@@]1(C)Oc1ccccc12 (stereo partly specified) | > 100 | > 100 | > 100 | > 100 | > 100 | > 100 | > 100 | > 100 | > 100 | > 100 | > 100 | > 100 | > 100 | > 100 | > 100 | > 100 | > 100 | > 100 | – | –
C=CCOCn1cc(F)c(=O)[nH]c1=O | > 100 | > 100 | > 100 | > 100 | > 100 | – | > 100 | > 100 | > 100 | > 100 | > 100 | > 100 | > 100 | – | – | > 100 | > 100 | > 100 | > 100 | > 100
COc1cc2c(oc(=O)c3cc4cc([Si](C)(C)C)oc4c(OC)c32)c2cccc(O)c12 | > 100 | > 100 | > 100 | > 100 | > 100 | > 100 | > 100 | > 100 | > 100 | > 100 | – | > 100 | > 100 | – | > 100 | > 100 | > 100 | > 100 | – | > 100
Cn1c(=O)cc2[nH]c3ccccc3n2c1=O | > 100 | > 100 | > 100 | – | > 100 | > 100 | > 100 | > 100 | > 100 | > 100 | – | > 100 | – | – | > 100 | > 100 | > 100 | > 100 | – | 46.3
ClCC[N-]CC[N-]CCCl.ClCC[N-]CC[N-]CCCl.[O-][Cl+3]([O-])([O-])O.[Zn+2] | 49.6 | 39.7 | > 100 | > 62.8 | > 100 | > 57.3 | > 62.3 | 68.7 | 38.5 | 37.4 | – | > 100 | 27.3 | – | 41.8 | 45.4 | > 62.4 | > 100 | – | > 67.8
CCc1c(CNC2=NCCN2)c(CC)c(CNC2=NCCN2)c(CC)c1CNC1=NCCN1 | > 100 | > 100 | > 100 | > 100 | > 100 | > 100 | > 100 | > 100 | > 100 | > 100 | – | > 100 | > 100 | > 100 | > 100 | > 100 | > 100 | > 100 | > 100 | > 100
COC(=O)c1c(-c2cc(OC)c(OC)c(OC)c2)oc2ccccc2c1=O | > 100 | > 100 | > 100 | > 100 | > 100 | > 100 | > 100 | > 100 | > 100 | > 100 | – | > 100 | > 100 | – | > 100 | > 100 | – | > 100 | – | > 100
C=CCCCN1CCCC(C)C1=S (stereo unspecified) | > 100 | – | > 100 | > 100 | > 100 | > 100 | > 100 | > 100 | > 100 | > 100 | – | > 100 | > 100 | – | > 100 | > 100 | > 100 | > 100 | – | > 100
COCN(C)c1nc(N(C)C)nc(N(C)C)n1 | > 100 | > 100 | > 100 | > 100 | > 100 | > 100 | > 100 | > 100 | > 100 | > 100 | – | – | 37 | – | > 100 | > 100 | > 100 | > 100 | – | > 100
COc1ccc(OC)c(NC(=O)C(=O)CC(=O)c2sc(-n3nc(-c4ccccc4)cc3-c3ccccc3)nc2C)c1 | – | > 100 | – | > 100 | > 100 | – | > 100 | > 100 | > 100 | > 100 | – | > 100 | > 100 | – | > 100 | > 100 | – | > 100 | – | > 100
CCN(CC)C(=S)SCC(=O)Nc1nc2c(s1)CCCC2 | > 100 | – | – | > 100 | > 100 | > 100 | > 100 | – | > 100 | > 100 | – | > 100 | 65.3 | – | > 100 | > 100 | > 100 | > 100 | – | > 100
CC(C)(C)[C@H]1CO[C@]2(c3ccccc3)[C@@H]3C[C@@H]3C(=O)N12 | > 100 | > 100 | > 100 | – | > 100 | > 100 | > 100 | – | > 100 | > 100 | – | > 100 | > 100 | – | > 100 | > 100 | > 100 | > 100 | – | > 100
c1ccc(-c2c(-c3cccs3)[nH]c(-c3cccs3)c2-c2ccccn2)nc1 | > 100 | > 100 | 65.4 | > 100 | 40.4 | 55.4 | 59.3 | 37 | 40.7 | 77.1 | 48.7 | 49.2 | – | 64.8 | – | 75.2 | – | > 100 | – | 40.6
Cc1cc(S(=O)(=O)Nc2nnc3ccccn23)c(S)cc1Cl | > 100 | – | > 100 | > 100 | > 100 | – | > 100 | > 100 | > 100 | > 100 | > 100 | – | > 100 | > 100 | > 100 | > 100 | > 100 | > 100 | > 100 | > 100
